Measured values taken from paper PMC4890880 (ACS infectious diseases, 2016).

Each compound was assayed on HepG2-A16-CD81EGFP cells (assay: cells). Settings: Homo sapiens, HepG2, read-out: % inhibition.

SMILES	inhibition at 50 µM
CCOc1ccccc1CNC(=O)C1c2ccccc2C(=O)N(CC(C)C)C1c1cccs1 (stereo not drawn) [MMV000653]	90.2%
OC(CNC1CCCC1)Cn1c2ccccc2c2ccccc21 (stereo not drawn) [MMV000848]	96.9%
O=C1CC(O)(C(F)(F)C(F)(F)F)Oc2ccccc21 (stereo not drawn) [MMV000972]	96.7%
Cc1ccc(Nc2nc(NCCO)c3ccccc3n2)cc1C [MMV001038]	94.2%
CSc1ccccc1C(=O)Nc1nc(-c2ccccn2)cs1 [MMV001246]	82.2%
CCCCc1ccc(NS(=O)(=O)c2cc3c4c(c2)CCN4C(=O)CC3)cc1 [MMV001255]	67.8%
O=C(Nc1ccc(Br)cc1)Nc1cccc(Cl)c1 [MMV001318]	66.2%
CCc1c(C)c(=N)c2ccccc2n1C [MMV006278]	71%
CN(C)c1ccc(C=Cc2nc(=O)c3ccccc3o2)cc1 [MMV006309]	96.7%
CCOC(=O)c1ccc2nc(-c3ccccc3)cc(O)c2c1 [MMV006457]	78.2%
COc1ccc(-c2nc3cc(Cc4ccc5[nH]c(-c6ccc(OC)cc6)nc5c4)ccc3[nH]2)cc1 [MMV007384]	96%
CCCCCCOC(=O)C1=C(C)NC(=O)NC1c1ccccc1F (stereo not drawn) [MMV007686]	19.1%
O=c1nc(C=Cc2ccc(Cl)cc2)oc2ccccc12 [MMV007977]	78.9%
CCOC(=O)c1cnc2c(C)cc(C)cc2c1Nc1ccc(OC)c(OC)c1 [MMV008294]	1.7%
CCCc1c(CC)c(=N)c2ccccc2n1C [MMV008416]	83.1%

These compounds were tested on Plasmodium berghei (Pb-Luc) exoerythrocytic-stage parasites (assay: microbe, parasite or virus in culture). Settings: read-out: Inhibition% @ 50 uM rep1.

SMILES	inhibition at 50 µM
CCOc1ccccc1CNC(=O)C1c2ccccc2C(=O)N(CC(C)C)C1c1cccs1 (stereo not drawn) [MMV000653]	104%
OC(CNC1CCCC1)Cn1c2ccccc2c2ccccc21 (stereo not drawn) [MMV000848]	103%
O=C1CC(O)(C(F)(F)C(F)(F)F)Oc2ccccc21 (stereo not drawn) [MMV000972]	103%
Cc1ccc(Nc2nc(NCCO)c3ccccc3n2)cc1C [MMV001038]	102%
CSc1ccccc1C(=O)Nc1nc(-c2ccccn2)cs1 [MMV001246]	101%
CCCCc1ccc(NS(=O)(=O)c2cc3c4c(c2)CCN4C(=O)CC3)cc1 [MMV001255]	98%
O=C(Nc1ccc(Br)cc1)Nc1cccc(Cl)c1 [MMV001318]	103%
CCc1c(C)c(=N)c2ccccc2n1C [MMV006278]	100%
CN(C)c1ccc(C=Cc2nc(=O)c3ccccc3o2)cc1 [MMV006309]	104%
CCOC(=O)c1ccc2nc(-c3ccccc3)cc(O)c2c1 [MMV006457]	102%
COc1ccc(-c2nc3cc(Cc4ccc5[nH]c(-c6ccc(OC)cc6)nc5c4)ccc3[nH]2)cc1 [MMV007384]	104%
CCCCCCOC(=O)C1=C(C)NC(=O)NC1c1ccccc1F (stereo not drawn) [MMV007686]	69%
O=c1nc(C=Cc2ccc(Cl)cc2)oc2ccccc12 [MMV007977]	104%
CCOC(=O)c1cnc2c(C)cc(C)cc2c1Nc1ccc(OC)c(OC)c1 [MMV008294]	0.759%
CCCc1c(CC)c(=N)c2ccccc2n1C [MMV008416]	101%

Same assay, conditions: read-out: Inhibition% @ 50 uM rep2

SMILES	inhibition at 50 µM
CCOc1ccccc1CNC(=O)C1c2ccccc2C(=O)N(CC(C)C)C1c1cccs1 (stereo not drawn) [MMV000653]	106%
OC(CNC1CCCC1)Cn1c2ccccc2c2ccccc21 (stereo not drawn) [MMV000848]	104%
O=C1CC(O)(C(F)(F)C(F)(F)F)Oc2ccccc21 (stereo not drawn) [MMV000972]	105%
Cc1ccc(Nc2nc(NCCO)c3ccccc3n2)cc1C [MMV001038]	102%
CSc1ccccc1C(=O)Nc1nc(-c2ccccn2)cs1 [MMV001246]	104%
CCCCc1ccc(NS(=O)(=O)c2cc3c4c(c2)CCN4C(=O)CC3)cc1 [MMV001255]	92%
O=C(Nc1ccc(Br)cc1)Nc1cccc(Cl)c1 [MMV001318]	102%
CCc1c(C)c(=N)c2ccccc2n1C [MMV006278]	101%
CN(C)c1ccc(C=Cc2nc(=O)c3ccccc3o2)cc1 [MMV006309]	105%
CCOC(=O)c1ccc2nc(-c3ccccc3)cc(O)c2c1 [MMV006457]	104%
COc1ccc(-c2nc3cc(Cc4ccc5[nH]c(-c6ccc(OC)cc6)nc5c4)ccc3[nH]2)cc1 [MMV007384]	105%
CCCCCCOC(=O)C1=C(C)NC(=O)NC1c1ccccc1F (stereo not drawn) [MMV007686]	63%
O=c1nc(C=Cc2ccc(Cl)cc2)oc2ccccc12 [MMV007977]	106%
CCOC(=O)c1cnc2c(C)cc(C)cc2c1Nc1ccc(OC)c(OC)c1 [MMV008294]	0%
CCCc1c(CC)c(=N)c2ccccc2n1C [MMV008416]	104%

Test system: HepG2-A16-CD81EGFP cells
Test: cells
Settings: Homo sapiens, HepG2, read-out: % inhibition
Remark: another data set of the same source

SMILES	inhibition at 50 µM
CCOc1ccccc1CNC(=O)C1c2ccccc2C(=O)N(CC(C)C)C1c1cccs1 (stereo not drawn) [MMV000653]	94%
OC(CNC1CCCC1)Cn1c2ccccc2c2ccccc21 (stereo not drawn) [MMV000848]	99.2%
O=C1CC(O)(C(F)(F)C(F)(F)F)Oc2ccccc21 (stereo not drawn) [MMV000972]	97.9%
Cc1ccc(Nc2nc(NCCO)c3ccccc3n2)cc1C [MMV001038]	96.1%
CSc1ccccc1C(=O)Nc1nc(-c2ccccn2)cs1 [MMV001246]	86.4%
CCCCc1ccc(NS(=O)(=O)c2cc3c4c(c2)CCN4C(=O)CC3)cc1 [MMV001255]	77.1%
O=C(Nc1ccc(Br)cc1)Nc1cccc(Cl)c1 [MMV001318]	65.5%
CCc1c(C)c(=N)c2ccccc2n1C [MMV006278]	77.8%
CN(C)c1ccc(C=Cc2nc(=O)c3ccccc3o2)cc1 [MMV006309]	98.3%
CCOC(=O)c1ccc2nc(-c3ccccc3)cc(O)c2c1 [MMV006457]	82.5%
COc1ccc(-c2nc3cc(Cc4ccc5[nH]c(-c6ccc(OC)cc6)nc5c4)ccc3[nH]2)cc1 [MMV007384]	99.2%
CCCCCCOC(=O)C1=C(C)NC(=O)NC1c1ccccc1F (stereo not drawn) [MMV007686]	4.22%
O=c1nc(C=Cc2ccc(Cl)cc2)oc2ccccc12 [MMV007977]	85.9%
CCOC(=O)c1cnc2c(C)cc(C)cc2c1Nc1ccc(OC)c(OC)c1 [MMV008294]	-1.86%
CCCc1c(CC)c(=N)c2ccccc2n1C [MMV008416]	84%
